The values below come from patent US4416870A, “Antibiotic compound, its production and its medicinal use” (Bayer Aktiengesellschaft, priority 1981, dated 1983).

One data set deals with Klebsiella pneumoniae 63. The data set can be described thus: Animal test (mice), ED100 after intraperitoneal infection and subcutaneous treatment (Example B). The format is in vivo, mice infected with Klebsiella pneumoniae. To be noted: sc, dose at which all infected and treated animals survive. The procedure: (§1) BAYi 3265 component A animal test (mice) | ED100 after intraperitoneal | infection and subcutaneous |Infecting germ treatment in mg/kg The animals were infected with a quantity of bacteria, which quantity led to the death of the control animals within 24 hours. The ED100 was the dose which allowed all infected and treated animals to survive.

Another data set can be described thus: physchem. To be noted: organic solvent or mixture.
The subject of data set [1] is E. coli Neumann. Nature of the data set: Animal test (mice), ED100 after intraperitoneal infection and subcutaneous treatment (Example B). The settings on record: Escherichia coli, sc, dose at which all infected and treated animals survive. Type of data set: in vivo, mice infected with E. coli. The procedure: as §1
The next data set concerns E. coli 205 Kn. Described as above. To be noted: Escherichia coli, sc, dose at which all infected and treated animals survive. The format is in vivo, mice infected with E. coli. The procedure: as §1
Data set [2] concerns E. coli Neumann. Nature of the data set: White mouse, ED100 (complete cure) on infection with E. coli Neumann, single subcutaneous application. The format is in vivo, white mouse infected with E. coli. The settings on record: Escherichia coli, sc, 0.5 h, once, 30 minutes after infection, subcutaneously. The procedure: For the white mouse, an ED100 (complete cure) is found in vivo, at 3 mg of antibiotic/kg of body weight, on infection with E. coli Neumann; therapy: application once, 30 minutes after infection, subcutaneously.

The structures appear in SMILES notation. *1 amine or outer side, *2 acyl side, *3 side chain or, on linkers, in order; H or OH if unused. Where a SMILES comes first, the peptide text is derived from it. [ ]: non-standard residue; d: D form. ξ: configuration not given here. X1 = Cn1c(=O)ccn(C2SC(C(O)C(N[*:1])C(=O)[*:2])C(O)C2O)c1=O; ξOrn(N(OH)Ac) = CC(=O)N(O)CCCC(N)C(=O)O; ξS = NC(CO)C(=O)O

In the case of `CC(=O)N(O)CCCC(N)C(=O)NC(CCCN(O)C(C)=O)C(=O)NC(CCCN(O)C(C)=O)C(=O)NC(CO)C(=O)NC(C(=O)O)C(O)C1SC(n2ccc(=O)n(C)c2=O)C(O)C1O` (centres unmarked) [BAYi 3265 Component A] (H-[ξOrn(N(OH)Ac)][ξOrn(N(OH)Ac)][ξOrn(N(OH)Ac)][ξS][X1]-OH), the ED100 stood at 0.2 mg/kg in the data set on Klebsiella pneumoniae 63, 0.5 mg/kg with E. coli Neumann [1], 0.1 mg/kg with E. coli 205 Kn and 3 mg/kg in the data set on E. coli Neumann [2]. Moreover, the solubility was less than 0.1 mg/mL in the data set “physchem” (chloroform); less than 10 mg/mL in the data set “physchem” (dimethylformamide); less than 10 mg/mL in “physchem” (dimethylsulphoxide); less than 0.1 mg/mL in “physchem” (ether); less than 0.1 mg/mL in “physchem” (ethyl acetate); less than 10 mg/mL in “physchem” (methanol). In addition, the solubility in the data set “physchem” (petroleum ether) was less than 0.1 mg/mL.

As usually defined, the solubility is the dissolved amount per volume that the medium holds.
